Data taken from patent publication US20260274829A1, “NEW E3 UBIQUITIN LIGASE LIGAND, PROTEIN DEGRADATION AGENT AND USE THEREOF” (GLUETACS THERAPEUTICS (SHANGHAI) CO., LTD., priority 2023, published 2026).

How the values were obtained:
Type in all cases: cell-based
[1] = target: T1, IKZF3 (Homo sapiens, UniProt Q96SW2+Q9UKT9); assay: Western blot degradation of IKZF3 in hPBMC
T1 construct: endogenous in cells; host or cells: hPBMC
Method in brief: (§1)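 Compound-treated hPBMC lysates were denatured in SDS loading buffer at 95° C for 5 minutes, run on SDS-PAGE and blotted to nitrocellulose. DC50 is the concentration giving band grayscale half that of DMSO controls, from a fitted concentration-response curve; remaining protein is band intensity normalized to an internal control protein.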

[2] = target: T2, GSPT1 (Homo sapiens, UniProt P15170+Q96SW2); assay: Western blot degradation of GSPT1 in hPBMC
T2 construct: endogenous in cells; host or cells: hPBMC
Method in brief: as §1

[3] = target: T3, WEE1 (Homo sapiens, UniProt P30291+Q96SW2); assay: Western blot degradation of WEE1 in hPBMC
T3 construct: endogenous in cells; host or cells: hPBMC
Method in brief: as §1

[4] = target: T4, IKZF1 (Homo sapiens, UniProt Q13422+Q96SW2); assay: Western blot degradation of IKZF1 in hPBMC
T4 construct: endogenous in cells; host or cells: hPBMC
Method in brief: as §1

[5] = target: T5, CK1a (Homo sapiens, UniProt P48729+Q96SW2); assay: Western blot degradation of CK1a in hPBMC
T5 construct: endogenous in cells; host or cells: hPBMC
Method in brief: as §1

[6] = target: T6, IKZF2 (Homo sapiens, UniProt Q96SW2+Q9UKS7); assay: Western blot degradation of IKZF2 in hPBMC
T6 construct: endogenous in cells; host or cells: hPBMC
Method in brief: as §1

T5 sequence (P48729 whole entry): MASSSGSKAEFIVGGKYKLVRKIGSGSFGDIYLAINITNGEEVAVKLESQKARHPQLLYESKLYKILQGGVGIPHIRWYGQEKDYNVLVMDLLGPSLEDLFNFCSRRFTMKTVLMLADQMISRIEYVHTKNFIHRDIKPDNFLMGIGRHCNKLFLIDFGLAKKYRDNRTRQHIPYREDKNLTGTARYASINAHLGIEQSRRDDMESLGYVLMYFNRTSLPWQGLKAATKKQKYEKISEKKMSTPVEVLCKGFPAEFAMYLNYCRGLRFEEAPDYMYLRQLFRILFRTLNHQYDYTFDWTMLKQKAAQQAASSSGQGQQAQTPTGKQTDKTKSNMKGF
T5 sequence (Q96SW2 whole entry): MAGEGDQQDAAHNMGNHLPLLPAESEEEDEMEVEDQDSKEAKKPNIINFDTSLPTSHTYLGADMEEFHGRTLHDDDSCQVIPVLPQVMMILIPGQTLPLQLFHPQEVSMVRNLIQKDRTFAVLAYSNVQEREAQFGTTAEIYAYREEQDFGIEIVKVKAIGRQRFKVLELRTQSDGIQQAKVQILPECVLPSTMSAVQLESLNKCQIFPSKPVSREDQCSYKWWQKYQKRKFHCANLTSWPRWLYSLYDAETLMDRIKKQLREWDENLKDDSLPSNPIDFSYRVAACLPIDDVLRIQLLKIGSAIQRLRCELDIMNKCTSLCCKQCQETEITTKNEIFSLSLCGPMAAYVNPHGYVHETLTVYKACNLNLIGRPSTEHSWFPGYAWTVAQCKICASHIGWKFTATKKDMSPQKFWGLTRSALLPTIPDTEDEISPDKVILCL
T5 sequence (Q16531 whole entry partner): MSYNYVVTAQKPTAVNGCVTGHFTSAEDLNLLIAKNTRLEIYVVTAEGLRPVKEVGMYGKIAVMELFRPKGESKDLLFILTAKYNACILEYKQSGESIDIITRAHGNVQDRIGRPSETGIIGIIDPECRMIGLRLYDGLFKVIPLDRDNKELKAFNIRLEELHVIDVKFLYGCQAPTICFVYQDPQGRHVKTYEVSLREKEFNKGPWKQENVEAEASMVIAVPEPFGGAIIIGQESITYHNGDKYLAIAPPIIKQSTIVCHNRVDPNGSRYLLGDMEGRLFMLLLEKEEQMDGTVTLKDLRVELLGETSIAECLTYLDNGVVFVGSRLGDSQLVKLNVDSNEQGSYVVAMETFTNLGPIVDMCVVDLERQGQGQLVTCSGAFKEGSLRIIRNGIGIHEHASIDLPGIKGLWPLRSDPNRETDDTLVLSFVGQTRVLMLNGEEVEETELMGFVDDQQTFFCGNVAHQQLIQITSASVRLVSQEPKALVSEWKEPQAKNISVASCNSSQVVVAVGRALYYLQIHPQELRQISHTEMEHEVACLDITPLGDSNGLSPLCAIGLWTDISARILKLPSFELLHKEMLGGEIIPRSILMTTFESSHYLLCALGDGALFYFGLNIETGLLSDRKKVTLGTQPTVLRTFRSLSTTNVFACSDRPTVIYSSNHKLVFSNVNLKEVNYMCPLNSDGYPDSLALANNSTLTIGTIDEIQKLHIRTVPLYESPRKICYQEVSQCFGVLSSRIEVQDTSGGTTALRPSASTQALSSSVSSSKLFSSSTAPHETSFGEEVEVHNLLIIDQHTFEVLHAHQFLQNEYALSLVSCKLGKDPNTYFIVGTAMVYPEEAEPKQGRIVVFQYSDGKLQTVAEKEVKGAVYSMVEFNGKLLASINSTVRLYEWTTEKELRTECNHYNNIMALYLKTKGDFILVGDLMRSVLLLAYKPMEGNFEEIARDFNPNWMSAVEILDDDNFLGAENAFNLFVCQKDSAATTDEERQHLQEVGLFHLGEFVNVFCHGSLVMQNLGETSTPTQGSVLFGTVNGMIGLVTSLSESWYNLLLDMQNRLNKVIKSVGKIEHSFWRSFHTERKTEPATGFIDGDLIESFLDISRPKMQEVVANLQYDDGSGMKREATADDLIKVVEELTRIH
T2 sequence (P15170 whole entry): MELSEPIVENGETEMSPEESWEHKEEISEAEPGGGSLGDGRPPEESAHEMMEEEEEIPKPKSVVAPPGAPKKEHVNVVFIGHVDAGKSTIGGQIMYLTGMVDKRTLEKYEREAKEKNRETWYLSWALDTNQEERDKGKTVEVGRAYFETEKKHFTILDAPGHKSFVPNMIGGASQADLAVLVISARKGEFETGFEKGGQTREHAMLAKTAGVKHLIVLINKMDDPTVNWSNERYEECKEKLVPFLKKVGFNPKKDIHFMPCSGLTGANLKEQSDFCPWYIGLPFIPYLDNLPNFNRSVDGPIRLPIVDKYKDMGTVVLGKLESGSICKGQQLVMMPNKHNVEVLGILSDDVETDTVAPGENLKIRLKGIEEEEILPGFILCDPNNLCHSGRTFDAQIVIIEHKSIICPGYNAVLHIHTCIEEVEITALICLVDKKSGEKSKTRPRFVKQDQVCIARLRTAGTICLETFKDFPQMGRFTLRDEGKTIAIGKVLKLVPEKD
T2 sequence (Q96SW2 whole entry): as the sequence (Q96SW2 whole entry) above
T2 sequence (Q16531 whole entry partner): as the sequence (Q16531 whole entry partner) above
T3 sequence (P30291 whole entry): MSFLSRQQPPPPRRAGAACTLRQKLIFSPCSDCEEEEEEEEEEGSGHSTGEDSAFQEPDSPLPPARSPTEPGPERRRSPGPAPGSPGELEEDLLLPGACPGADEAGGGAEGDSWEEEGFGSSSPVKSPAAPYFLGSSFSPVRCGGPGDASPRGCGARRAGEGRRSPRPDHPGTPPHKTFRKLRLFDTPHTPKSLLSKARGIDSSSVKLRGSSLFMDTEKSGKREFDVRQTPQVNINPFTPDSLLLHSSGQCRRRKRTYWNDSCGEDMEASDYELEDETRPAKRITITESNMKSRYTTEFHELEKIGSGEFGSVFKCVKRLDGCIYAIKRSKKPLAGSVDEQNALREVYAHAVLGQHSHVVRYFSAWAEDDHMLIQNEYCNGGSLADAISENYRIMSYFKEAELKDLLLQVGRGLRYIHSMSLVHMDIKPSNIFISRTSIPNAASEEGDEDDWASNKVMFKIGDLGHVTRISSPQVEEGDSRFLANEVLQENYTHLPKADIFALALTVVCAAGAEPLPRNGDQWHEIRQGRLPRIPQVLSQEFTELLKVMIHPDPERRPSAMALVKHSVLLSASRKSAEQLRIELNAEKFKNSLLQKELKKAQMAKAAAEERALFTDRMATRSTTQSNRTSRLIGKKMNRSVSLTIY
T3 sequence (Q96SW2 whole entry): as the sequence (Q96SW2 whole entry) above
T3 sequence (Q16531 whole entry partner): as the sequence (Q16531 whole entry partner) above
T4 sequence (Q13422 whole entry): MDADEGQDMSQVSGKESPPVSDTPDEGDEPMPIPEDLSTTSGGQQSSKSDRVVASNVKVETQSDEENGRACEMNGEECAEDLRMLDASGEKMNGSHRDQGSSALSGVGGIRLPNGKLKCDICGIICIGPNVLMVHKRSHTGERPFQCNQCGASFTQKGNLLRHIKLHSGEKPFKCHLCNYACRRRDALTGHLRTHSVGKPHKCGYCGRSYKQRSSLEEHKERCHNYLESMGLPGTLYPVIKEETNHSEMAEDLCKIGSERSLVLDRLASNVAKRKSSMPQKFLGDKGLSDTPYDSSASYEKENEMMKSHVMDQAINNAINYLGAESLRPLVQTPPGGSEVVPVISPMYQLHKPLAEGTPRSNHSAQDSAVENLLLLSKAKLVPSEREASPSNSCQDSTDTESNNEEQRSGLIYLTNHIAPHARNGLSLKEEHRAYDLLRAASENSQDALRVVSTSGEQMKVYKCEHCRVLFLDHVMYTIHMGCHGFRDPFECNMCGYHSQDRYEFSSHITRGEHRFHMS
T4 sequence (Q96SW2 whole entry): as the sequence (Q96SW2 whole entry) above
T4 sequence (Q16531 whole entry partner): as the sequence (Q16531 whole entry partner) above
T1 sequence (Q9UKT9 whole entry): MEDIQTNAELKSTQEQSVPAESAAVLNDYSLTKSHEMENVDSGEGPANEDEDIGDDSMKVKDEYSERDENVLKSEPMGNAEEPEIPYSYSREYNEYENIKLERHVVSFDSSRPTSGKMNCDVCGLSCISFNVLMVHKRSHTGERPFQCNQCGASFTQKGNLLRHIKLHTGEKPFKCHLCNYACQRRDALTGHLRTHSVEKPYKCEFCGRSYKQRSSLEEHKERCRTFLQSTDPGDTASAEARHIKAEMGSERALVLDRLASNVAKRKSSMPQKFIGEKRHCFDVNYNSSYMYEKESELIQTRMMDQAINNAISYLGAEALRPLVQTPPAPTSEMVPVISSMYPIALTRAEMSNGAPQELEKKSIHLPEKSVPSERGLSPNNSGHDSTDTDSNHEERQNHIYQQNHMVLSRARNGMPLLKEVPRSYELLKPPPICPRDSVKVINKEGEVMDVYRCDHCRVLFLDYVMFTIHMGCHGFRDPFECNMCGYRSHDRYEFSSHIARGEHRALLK
T1 sequence (Q96SW2 whole entry): as the sequence (Q96SW2 whole entry) above
T1 sequence (Q16531 whole entry partner): as the sequence (Q16531 whole entry partner) above

Row | Structure (SMILES) | Degradation of substrate protein IKZF3 (substrate protein remaining %) [1] | Degradation of substrate protein GSPT1 (substrate protein remaining %) [2] | Degradation of substrate protein WEE1 (substrate protein remaining %) [3] | Degradation of substrate protein IKZF1 (substrate protein remaining %) [4] | Degradation of substrate protein CK1a (substrate protein remaining %) [5] | Degradation of substrate protein IKZF2 (substrate protein remaining %) [6]
1 | O=C1CCC(c2cncc(CCl)c2)C(=O)N1 (stereo not drawn) [GT-06991, 3-(5-(chloromethyl)pyridin-3-yl)piperidine-2,6-dione] | B (B is defined as substrate protein remaining % > 80%) | B (B is defined as substrate protein remaining % > 80%) | B (B is defined as substrate protein remaining % > 80%) | B (B is defined as substrate protein remaining % > 80%) | B (B is defined as substrate protein remaining % > 80%) | A (A is defined as 0% ≤ substrate protein remaining % ≤ 80%)
2 | CC(C)(C)[Si](C)(C)OCc1cnc(NC2CCC(=O)NC2=O)nc1 (stereo not drawn) [GT-07808, 3-((5-(((tert-butyldimethylsilyl)oxy)methyl)pyrimidin-2-yl)amino)piperidine-2,6-dione] | A (A is defined as 0% ≤ substrate protein remaining % ≤ 80%) | B (B is defined as substrate protein remaining % > 80%) | A (A is defined as 0% ≤ substrate protein remaining % ≤ 80%) | A (A is defined as 0% ≤ substrate protein remaining % ≤ 80%) | B (B is defined as substrate protein remaining % > 80%) | A (A is defined as 0% ≤ substrate protein remaining % ≤ 80%)
3 | O=C1CCC(c2ncc(CO)cc2F)C(=O)N1 (stereo not drawn) [GT-07443, 3-(3-fluoro-5-(hydroxymethyl)pyridin-2-yl)piperidine-2,6-dione] | B (B is defined as substrate protein remaining % > 80%) | A (A is defined as 0% ≤ substrate protein remaining % ≤ 80%) | A (A is defined as 0% ≤ substrate protein remaining % ≤ 80%) | A (A is defined as 0% ≤ substrate protein remaining % ≤ 80%) | A (A is defined as 0% ≤ substrate protein remaining % ≤ 80%) | A (A is defined as 0% ≤ substrate protein remaining % ≤ 80%)
4 | O=Cc1cnc(NC2CCC(=O)NC2=O)nc1 (stereo not drawn) [GT-07367, 2-((2,6-dioxopiperidin-3-yl)amino)pyrimidine-5-carbaldehyde] | B (B is defined as substrate protein remaining % > 80%) | A (A is defined as 0% ≤ substrate protein remaining % ≤ 80%) | B (B is defined as substrate protein remaining % > 80%) | B (B is defined as substrate protein remaining % > 80%) | A (A is defined as 0% ≤ substrate protein remaining % ≤ 80%) | B (B is defined as substrate protein remaining % > 80%)
5 | O=C1CCN(c2cnc(CO)c(F)c2)C(=O)N1 [GT-07555, 1-(5-fluoro-6-(hydroxymethyl)pyridin-3-yl)dihydropyrimidine-2,4(1H,3H)-dione] | A (A is defined as 0% ≤ substrate protein remaining % ≤ 80%) | A (A is defined as 0% ≤ substrate protein remaining % ≤ 80%) | A (A is defined as 0% ≤ substrate protein remaining % ≤ 80%) | A (A is defined as 0% ≤ substrate protein remaining % ≤ 80%) | A (A is defined as 0% ≤ substrate protein remaining % ≤ 80%) | A (A is defined as 0% ≤ substrate protein remaining % ≤ 80%)
